# Data: publication PMC11077972, “Optimization of the antifungal properties of the bacterial peptide EntV by variant analysis” (mBio, 2024)
# Where a SMILES comes first, the peptide text is derived from it. Bridges are numbered along the chain shown (N, C = ends). [ ]: non-standard residue; d: D form. R8 = C=CCCCCCC[C@@](C)(N)C(=O)O; S5 = C=CCCC[C@](C)(N)C(=O)O
# Key:
# [1] = tested on: C. albicans biofilm; assay: C. albicans biofilm assay in artificial saliva medium (crystal violet); assay type: cell-based, Candida albicans; details: 10 nM peptide
# Method: Briefly, C. albicans strains were grown in YPD broth for 18 hrs at 30°C with agitation and then sub-cultured for 4 hrs in the same conditions. Cells were then collected by centrifugation at 16,000 x g for 30 s, washed twice in PBS, and adjusted to a concentration of 5 × 10^6 cells/mL (measured with Countess II, Life Technologies) in PBS treated with the 10 nM peptide. The cell suspension was incubated for 1 hr at 30°C with agitation at 200 rpm. Then, 100 µL of the cell suspension was added to wells of a 96-well tissue culture-treated polystyrene plate (Falcon). The PBS and unadhered cells were removed and then replaced with 200 µL of the artificial saliva medium ([15], [60]) containing the 10 nM peptide. The plate was then incubated at 37°C for 48 h.
# After incubation, the medium was gently removed along with any planktonic cells. The biofilm was then stained for 20 min with 50 µL of 0.08% crystal violet solution (Sigma). The crystal violet stain was then aspirated, and the wells were washed four times with sterile water. Biofilms were de-stained with 200 µL of 200 proof ethanol for 20 min, and 100 µL of the ethanol solution was transferred to a new well for analysis.
# [2] = tested on: C. albicans; assay: C. elegans survival assay after infection with C. albicans; assay type: in vivo, Candida albicans; details: 1 nM peptide; for Median survival: C. albicans infected C. elegans, 25°C, experiment with 12aa (i+7 staple)
# Method: C. elegans infection assays were performed with strain glp-4(bn2);sek-1(km-4) ([40]), which were propagated and maintained on E. coli strain OP50 grown as lawns on nematode growth medium (NGM) agar using standard techniques ([58]). To synchronize the nematodes to the same stage of growth, L1 stage worms on non-starved plates were washed off, filtered through a 10- µm filter (pluriSelect, pluriStrainer 10 µm), harvested by centrifugation at 1,500 rpm for 60 seconds, transferred to OP50-seeded plates, and grown to the L4 stage.
# To prepare the infection plates, fungal strains were grown in BHI broth overnight at 30°C with agitation. About 500 µL of the culture was plated onto BHI solid medium containing gentamycin (10 µg/mL) and grown for 24 hrs at 37°C. The synchronized L4 C. elegans nematodes were then washed off the OP50 plates in 2 mL sterile M9 buffer and washed once, centrifuging at 800 rpm for 30 seconds to collect the nematodes. Nematodes were infected by placing them on the fungal lawn for 4 hrs at 25°C. Following this exposure, they were washed off the plate and washed four times with 2 mL of sterile M9. The nematodes were then pipetted (~30 per well with two wells per condition for a total of ~60 worms assayed) into six-well plates with 2 mL of the liquid medium (20% BHI broth and 80% M9) containing 1 nM of the peptide. A DMSO-untreated control was used with each experiment. Plates were incubated at 25°C, and worm death was scored daily. Kaplan–Meier survival curves were generated and analyzed, as described in the quantification and statistical analysis section.
smiles,measurement,setting,value
CC(C)C[C@@H]1NC(=O)[C@H](C)NC(=O)[C@H](CC(C)C)NC(=O)[C@H](CCC(N)=O)NC(=O)CNC(=O)[C@@](C)(NC(=O)[C@@H](N)C(C)C)CCC/C=C\CCCCCC[C@](C)(C(=O)N[C@H](C(=O)N[C@@H](CCC(N)=O)C(=O)N[C@@H](CS)C(N)=O)C(C)C)NC(=O)[C@H](Cc2c[nH]c3ccccc23)NC1=O [12aa (i+7 staple)] (H-V[S5]GQLALW[R8]VQC-NH2; staple (Z) 2-9),Antifungal activity in biofilm assay,[1],fully active
same,Protection of C. elegans from C. albicans infection relative to parent peptide,"[2]; survival curves, Mantel–Cox log rank",remained as effective as the original
same,Median survival,[2]; trial 1,12 days
same,Median survival,[2]; trial 2,11.5 days
